Test results from the supplement of paper PMC11208160.

Assay: recombinant barcode read abundance after kanamycin selection (control-corrected) (log10(CPM+1)); higher = more efficient recombination; sequences stand for … in AGTGCAGAGAAAATCGGCCAGTTTTCTCTGCCTGCAGTCCGCATGCCGT…AGATTTATGCAGCGGACTGCCTTTCTCCCAAAGTGATAAACCGGACAGTATCATGGACCGGTTTTCCCGGTAATCCGTATTTGCAAGGTTGGTTTCACT; site = the 11-nt target
Procedure, shortened: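 Recombination efficiency draws on barcodes counted at recombinant junctions in a pooled E. coli screen of targets paired with IS621 bridge RNA target-binding loops. The counts were converted to counts per million, averaged and corrected against the chloramphenicol/ampicillin LB agar control, then reported as log10(CPM+1). Selection plates held chloramphenicol/ampicillin/kanamycin with 0.1 mM IPTG, with two replicates per condition.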
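Note: IS621 recombinase and bridge RNA in Escherichia coli cells.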

Sequence	recombinant barcode read abundance (log10)
ATGCGAGCTTGGGTTCTAACCTGTTGCGG (site ATGCGAGCTCT)	1.37
ATGCGAGCTTGGGTTCTAACCTGTTGCTG (site ATGCGAGCTCA)	1.19
ATGCGAGCTTGGGTTCTAACCTGTTGCTG (site ATGCGAGCTCC)	0.687
ATGCGAGCTTGGGTTCTAACCTGTTGCTG (site ATGCGAGCTCG)	0.533
ATGCGAGCTTGGGTTCTAACCTGTTGCTG (site ATGCGAGCTCT)	0.76
ATGCGGTCTTGGGTTCTAACCTGTTGCCT (site ATGCGGTCTAG)	2.02
ATGCGGTCTTGGGTTCTAACCTGTTGCCT (site CTGCGGTCTAT)	0.112
ATGCTAACTTGGGTTCTAACCTGTTGCCT (site ATGCTAACTAG)	1.62
ATGCTAACTTGGGTTCTAACCTGTTGCCT (site GTGCTAACTTG)	0.471
ATGCTATCTTGGGTTCTAACCTGTTGCAG (site ATGCTATCTCT)	0.678
ATGCTATCTTGGGTTCTAACCTGTTGCAG (site CACGGTCCTTG)	0.276
ATGCTGTCTTGGGTTCTAACCTGTTGCTA (site ATGCTGTCTTA)	1.52
ATGCTGTCTTGGGTTCTAACCTGTTGCTA (site GACTACCCTAG)	0.273
ATGGCACCTTGGGTTCTAACCTGTTGCCT (site AGGGCACCTTG)	0.035
ATGGCACCTTGGGTTCTAACCTGTTGCCT (site ATGGCACCTAG)	1.04
ATGGCCTCTTGGGTTCTAACCTGTTGCTA (site ATGGCCTCTTA)	2.5
ATGGCCTCTTGGGTTCTAACCTGTTGCTA (site GCTTAAACTAG)	0.0975
ATGGGCCCTTGGGTTCTAACCTGTTGCTG (site ATGGGCCCTAA)	0.13
ATGGGCCCTTGGGTTCTAACCTGTTGCTG (site ATGGGCCCTCA)	2.97
ATGGGCCCTTGGGTTCTAACCTGTTGCTG (site ATGGGCCCTGA)	0.127
ATGGGCCCTTGGGTTCTAACCTGTTGCTG (site ATGGGCCCTTA)	0.511
ATGGGGTCTTGGGTTCTAACCTGTTGCTT (site AAGGGGTCTAA)	0.223

Sequence	recombinant barcode read abundance (log10)
ATGGGGTCTTGGGTTCTAACCTGTTGCTT (site ATGGGGTCTAA)	1.73
ATGGGTCCTTGGGTTCTAACCTGTTGCCG (site ATAGGTCCTCA)	0.536
ATGGGTCCTTGGGTTCTAACCTGTTGCCG (site ATGGGTCCTCG)	2.21
ATGGTCACTTGGGTTCTAACCTGTTGCCT (site AAGGTCACTAG)	0.354
ATGGTCACTTGGGTTCTAACCTGTTGCCT (site ACGGTCACTAG)	1.18
ATGGTCACTTGGGTTCTAACCTGTTGCCT (site AGGGTCACTAG)	0.0805
ATGGTCACTTGGGTTCTAACCTGTTGCCT (site ATGGTCACTAG)	2.54
ATGGTGTCTTGGGTTCTAACCTGTTGCCT (site ATGGTGACTAG)	0.109
ATGGTGTCTTGGGTTCTAACCTGTTGCCT (site ATGGTGCCTAG)	0.768
ATGGTGTCTTGGGTTCTAACCTGTTGCCT (site ATGGTGGCTAG)	0.0539
ATGGTGTCTTGGGTTCTAACCTGTTGCCT (site ATGGTGTCTAG)	2.75
ATGTACACTTGGGTTCTAACCTGTTGCCT (site ATGGATACTAG)	0.0684
ATGTACACTTGGGTTCTAACCTGTTGCCT (site ATGTACACTAG)	1.55
ATGTAGTCTTGGGTTCTAACCTGTTGCCT (site ATGTAGTCTAG)	1.89
ATGTAGTCTTGGGTTCTAACCTGTTGCCT (site TTGTCGTCTAG)	0.24
ATGTCCTCTTGGGTTCTAACCTGTTGCCT (site ATGACCTCTAG)	0.145
ATGTCCTCTTGGGTTCTAACCTGTTGCCT (site ATGCCCTCTAG)	0.872
ATGTCCTCTTGGGTTCTAACCTGTTGCCT (site ATGGCCTCTAG)	0.276
ATGTCCTCTTGGGTTCTAACCTGTTGCCT (site ATGTCCTCTAG)	1.5
ATGTCTGCTTGGGTTCTAACCTGTTGCCT (site ATGTCTGCTAG)	0.475
ATGTCTGCTTGGGTTCTAACCTGTTGCCT (site GATGGACCTTA)	0.0105
ATGTGAACTTGGGTTCTAACCTGTTGCTG (site ATGTGAACTCA)	1.02

Sequence	recombinant barcode read abundance (log10)
ATGTGAACTTGGGTTCTAACCTGTTGCTG (site GCAGCCTCTAC)	0.0648
ATGTGCTCTTGGGTTCTAACCTGTTGCCT (site AAGTGCTCTAG)	0.204
ATGTGCTCTTGGGTTCTAACCTGTTGCCT (site ACGTGCTCTAG)	0.253
ATGTGCTCTTGGGTTCTAACCTGTTGCCT (site AGGTGCTCTAG)	0.22
ATGTGCTCTTGGGTTCTAACCTGTTGCCT (site ATGTGCTCTAG)	2.07
ATGTTAGCTTGGGTTCTAACCTGTTGCCT (site ATGTAGGCTAG)	0.208
ATGTTAGCTTGGGTTCTAACCTGTTGCCT (site ATGTTAGCTAG)	1.65
ATTCGAGCTTGGGTTCTAACCTGTTGCAT (site ATTCGAGCTAT)	1.18
ATTCGAGCTTGGGTTCTAACCTGTTGCAT (site CGGGCGTCTTA)	0.203
ATTCGGCCTTGGGTTCTAACCTGTTGCCT (site AGTCGGCCTAG)	0.038
ATTCGGCCTTGGGTTCTAACCTGTTGCCT (site ATTCGGCCTAG)	0.0683
ATTGCTCCTTGGGTTCTAACCTGTTGCCT (site ATTGCTCCTAG)	0.416
ATTGCTCCTTGGGTTCTAACCTGTTGCCT (site ATTGGTCCTAT)	0.126
ATTGCTCCTTGGGTTCTAACCTGTTGCTT (site ATTGCTCCTAA)	0.106
ATTGCTCCTTGGGTTCTAACCTGTTGCTT (site GGTGCTCCTAA)	0.722
ATTGGTCCTTGGGTTCTAACCTGTTGCCT (site ATAGGTCCTAG)	0.994
ATTGGTCCTTGGGTTCTAACCTGTTGCCT (site ATCGGTCCTAG)	0.27
ATTGGTCCTTGGGTTCTAACCTGTTGCCT (site ATGGGTCCTAG)	0.187
ATTGGTCCTTGGGTTCTAACCTGTTGCCT (site ATTGGTCCTAG)	1.66
ATTGGTTCTTGGGTTCTAACCTGTTGCCT (site ATTGGATCTAG)	0.114
ATTGGTTCTTGGGTTCTAACCTGTTGCCT (site ATTGGCTCTAG)	0.104
ATTGGTTCTTGGGTTCTAACCTGTTGCCT (site ATTGGGTCTAG)	0.0515

Sequence	recombinant barcode read abundance (log10)
ATTGGTTCTTGGGTTCTAACCTGTTGCCT (site ATTGGTTCTAG)	1.22
ATTTGAACTTGGGTTCTAACCTGTTGCCT (site ATTTGAACTAG)	0.086
ATTTGAACTTGGGTTCTAACCTGTTGCCT (site ATTTGCACTAG)	0.0882
ATTTGAACTTGGGTTCTAACCTGTTGCCT (site ATTTGGACTAG)	0.148
ATTTGAACTTGGGTTCTAACCTGTTGCCT (site ATTTGTACTAG)	0.101
ATTTGACCTTGGGTTCTAACCTGTTGCCG (site ACTTGACCTCT)	0.205
ATTTGACCTTGGGTTCTAACCTGTTGCCG (site ATTTGACCTCG)	0.67
ATTTGAGCTTGGGTTCTAACCTGTTGCTG (site ATTTGAGCTCA)	0.732
ATTTGAGCTTGGGTTCTAACCTGTTGCTG (site GTATGAGCTCA)	0.0966
CAAAAGGCTTGGGTTCTAACCTGTTGCCG (site CAAAAGGCTCG)	1.18
CAAAAGGCTTGGGTTCTAACCTGTTGCCG (site GTGTCCTCTAC)	0.239
CAAACACCTTGGGTTCTAACCTGTTGCTT (site CAAACACCTAA)	0.712
CAAACACCTTGGGTTCTAACCTGTTGCTT (site CAACCACCTAA)	0.0879
CAAACACCTTGGGTTCTAACCTGTTGCTT (site CAAGCACCTAA)	0.0323
CAAACACCTTGGGTTCTAACCTGTTGCTT (site CAATCACCTAA)	0.426
CAAACCTCTTGGGTTCTAACCTGTTGCAC (site CAAACCTCTGT)	1.97
CAAACCTCTTGGGTTCTAACCTGTTGCAC (site TCTTAGACTTC)	0.0456
CAAAGCCCTTGGGTTCTAACCTGTTGCCT (site CAAAGCCCTAG)	1.9
CAAAGCCCTTGGGTTCTAACCTGTTGCCT (site CGGAGCCCTAG)	0.349
CAACCGACTTGGGTTCTAACCTGTTGCCT (site CAACCGACTAG)	1.61
